Data as given in paper PMC7350133 (Heliyon, 2020).
Where two headings read alike, the source gives them in different places.

Experiments:
[1] = tested on: yeast alpha glucosidase enzyme; details: ref Gong et al., 2017, Peng et al., 2016, Rouzbehan et al.; cited from earlier work
[2] = ABTS free radical scavenging assay; details: mean ± SD (n = 3)
[3] = DPPH free radical scavenging assay; details: mean ± SD (n = 3)
alpha glucosidase = details: cited from earlier work

For `COc1ccc([C@@H]2CC(=O)c3c(O)cc(O)cc3O2)cc1O` [hesperetin], the type of inhibition [1] is given as “mixed type”.

In the case of `O=C1O[C@H]([C@@H](O)CO)C(O)=C1O` [Ascorbic acid], the “Antioxidant activity (IC50 in μg/mL) ABTS Assay” value [2] is reported as 3.9 ± 0.2 µg/mL and the “Antioxidant activity (IC50 in μg/mL) DPPH Assay” value [3] is reported as 5.1 ± 0.1 µg/mL.

In the case of `O=c1c2cc(O)c(O)cc2oc2cc(O)cc(O)c12` [norathyriol], the “AGI IC50” value (alpha glucosidase; ref Gu et al., 2019) is listed as 4.22 ± 0.19 µg/mL.

For `O=c1c(O)c(-c2ccc(O)cc2)oc2cc(O)cc(O)c12` [kaempferol], the type of inhibition [1] is listed as “mixed type”.

For `C[C@H]1O[C@H](O[C@H]2[C@H](O)[C@@H](O)[C@@H](O[C@H]3[C@H](O)[C@@H](O)C(O)O[C@@H]3CO)O[C@@H]2CO)[C@H](O)[C@@H](O)[C@@H]1N[C@H]1C=C(CO)[C@@H](O)[C@H](O)[C@H]1O` (stereo partly shown) [Acarbose, acarbose], the type of inhibition [1] is listed as “competitive”.

For `C/C=C(\C)CC/C=C(\C)C(=O)OCC(C)(C)CC1=C(O)C(=O)c2ccccc2C1=O` [rhinacanthin C], the “AGI IC50” value (alpha glucosidase; ref Shah et al., 2017) is listed as 22.6 ± 0.6 µg/mL.
